In general, IC50 refers to the concentration needed to halve the response being measured.

A value given as a limit tells only on which side of the number the result lay.

Data on 22 compounds can be found in patent US20250179065A1, “HDAC6 INHIBITORS AND USES THEREOF” (Eikonizo Therapeutics, Inc., priority 2022, published 2025).

Test [1] deals with Full length Human HDAC6 (Homo sapiens (Human), UniProt Q9UBN7). Description: Caliper endpoint assay for HDAC enzymatic activity (HDAC6). Conditions: for IC50: in vitro enzymatic, 30 min pre-incubation, 1 μM FAM-RHKK(Ac)-NH2 substrate; for Selectivity (6 v 8) (fold): ratio of HDAC8 IC50/HDAC6 IC50. The test is classed as biochemical.
For test [2], the target named is Full length Human HDAC8 (Homo sapiens (Human), UniProt Q9BY41). Description: Caliper endpoint assay for HDAC enzymatic activity (HDAC8). The test is classed as biochemical. Conditions: in vitro enzymatic, 30 min pre-incubation, 1 μM FAM-RHKK(TFAc)-NH2 substrate.
Sequence of Full length Human HDAC8 (Q9BY41 whole entry): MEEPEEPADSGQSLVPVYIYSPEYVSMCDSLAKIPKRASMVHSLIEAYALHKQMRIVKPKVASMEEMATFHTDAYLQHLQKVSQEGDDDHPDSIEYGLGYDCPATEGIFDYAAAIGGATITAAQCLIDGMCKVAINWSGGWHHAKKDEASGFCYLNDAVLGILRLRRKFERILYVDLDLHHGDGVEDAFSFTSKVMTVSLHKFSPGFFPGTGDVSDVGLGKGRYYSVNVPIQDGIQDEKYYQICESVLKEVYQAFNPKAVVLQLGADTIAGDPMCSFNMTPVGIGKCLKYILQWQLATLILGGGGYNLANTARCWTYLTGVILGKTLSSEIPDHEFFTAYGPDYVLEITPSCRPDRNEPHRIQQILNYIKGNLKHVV

Sequence of Full length Human HDAC6 (Q9UBN7 whole entry): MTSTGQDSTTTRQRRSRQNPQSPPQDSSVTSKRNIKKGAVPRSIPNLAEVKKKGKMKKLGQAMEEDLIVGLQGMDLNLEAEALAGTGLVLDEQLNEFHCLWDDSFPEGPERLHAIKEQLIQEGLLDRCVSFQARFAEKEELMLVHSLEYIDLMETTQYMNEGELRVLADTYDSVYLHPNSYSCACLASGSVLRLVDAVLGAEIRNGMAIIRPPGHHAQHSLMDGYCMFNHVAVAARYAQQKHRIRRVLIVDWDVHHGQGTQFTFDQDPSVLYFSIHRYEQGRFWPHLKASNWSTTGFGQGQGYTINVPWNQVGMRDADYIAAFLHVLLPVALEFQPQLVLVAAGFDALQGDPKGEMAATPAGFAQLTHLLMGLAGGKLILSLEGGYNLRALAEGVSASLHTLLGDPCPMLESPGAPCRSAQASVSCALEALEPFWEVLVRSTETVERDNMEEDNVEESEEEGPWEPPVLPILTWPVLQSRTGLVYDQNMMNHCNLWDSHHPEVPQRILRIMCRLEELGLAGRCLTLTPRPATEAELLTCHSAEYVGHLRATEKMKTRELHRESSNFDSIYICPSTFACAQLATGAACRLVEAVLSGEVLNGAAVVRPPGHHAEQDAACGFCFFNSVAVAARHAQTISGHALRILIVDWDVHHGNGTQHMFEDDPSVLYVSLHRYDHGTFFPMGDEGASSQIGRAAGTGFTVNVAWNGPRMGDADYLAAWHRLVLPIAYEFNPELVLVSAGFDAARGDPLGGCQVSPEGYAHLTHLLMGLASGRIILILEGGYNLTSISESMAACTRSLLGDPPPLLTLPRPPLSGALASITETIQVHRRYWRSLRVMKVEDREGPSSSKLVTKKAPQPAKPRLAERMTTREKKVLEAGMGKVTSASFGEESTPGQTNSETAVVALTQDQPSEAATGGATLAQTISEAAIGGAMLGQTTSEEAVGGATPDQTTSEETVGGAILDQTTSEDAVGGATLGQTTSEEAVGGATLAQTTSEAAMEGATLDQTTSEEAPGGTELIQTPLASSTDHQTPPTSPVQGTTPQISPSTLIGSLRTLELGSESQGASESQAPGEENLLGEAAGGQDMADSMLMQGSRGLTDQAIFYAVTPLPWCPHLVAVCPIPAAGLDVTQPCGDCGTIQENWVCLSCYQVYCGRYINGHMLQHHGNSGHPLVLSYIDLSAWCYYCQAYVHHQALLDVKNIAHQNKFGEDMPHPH

Regarding `O=C(NO)c1cnc2c(c1)CCN([C@@H]1CCCC3(CCC3)C1)C2` (single isomer, unassigned) [Compound 194], in test [1], the IC50 lay in the range of 100 to 1000 nM and the “Selectivity (6 v 8) (fold)” value is reported as “III (III: >10-100)”. Also, the IC50 in test [2] was 10000 to 100000 nM.

With `O=C(NO)c1cnc2c(c1)CCN([C@H]1CCCC3(CCC3)C1)C2` (single isomer, unassigned) [Compound 195], the IC50 in test [1] lay in the range of 1 to 100 nM; in test [2], 1000 to 10000 nM. Moreover, in test [1], the “Selectivity (6 v 8) (fold)” value is on record as “IV (IV: >100-1000)”.

For `O=C(NO)c1cnc2c(c1)CCN(C1CC3(CCCNC3)C1)C2` (single isomer, unassigned) [Compound 341], the IC50 in test [2] lay within 10000 to 100000 nM.

In test [2], `O=C(NO)c1cnc2c(c1)CCN(C1CC3(CCCNC3)C1)C2` (single isomer, unassigned) [Compound 342] displayed an IC50 of 10000 to 100000 nM.

As for `CN1CCC[C@]2(C1)C[C@@H](N1CCc3cc(C(=O)NO)cnc3C1)C2` (single isomer, unassigned) [Compound 343], in test [1], the IC50 is 100 to 1000 nM and the “Selectivity (6 v 8) (fold)” value was “III (III: >10-100)”. The same compound gave an IC50 in test [2] of 1000 to 10000 nM.

In the case of `CN1CCC[C@]2(C1)C[C@H](N1CCc3cc(C(=O)NO)cnc3C1)C2` (single isomer, unassigned) [Compound 344], in test [1], the IC50 was 100 to 1000 nM and the “Selectivity (6 v 8) (fold)” value is on record as “III (III: >10-100)”. The IC50 in test [2] was in the range of 1000 to 10000 nM.

Turning to `O=C(NO)c1cnc2c(c1)CCN([C@H]1CCC3(CCC3)C1)C2` (single isomer, unassigned) [Compound 383], in test [1], the 50% inhibitory concentration (IC50) lay within 1 to 100 nM and the “Selectivity (6 v 8) (fold)” value is reported as “IV (IV: >100-1000)”. In test [2], this compound showed an IC50 of 10000 to 100000 nM.

Take `O=C(NO)c1cnc2c(c1)CCN(CC13CC4CC(CC(C4)O1)C3)C2` [Compound 14]: the values for the IC50 in test [1] and in test [2] were 1 to 100 nM and 10000 to 100000 nM, respectively. Also, in test [1], the “Selectivity (6 v 8) (fold)” value is given as “IV (IV: >100-1000)”.

As for `O=C(NO)c1cnc2c(c1)CCN(C1CC3(CCCCC3)C1)C2` [Compound 16, N-hydroxy-7-(spiro[3.5]nonan-2-yl)-5,6,7,8-tetrahydro-1,7-naphthyridine-3-carboxamide], in test [1], the IC50 is 1 to 100 nM and the “Selectivity (6 v 8) (fold)” value is on record as “IV (IV: >100-1000)”. In test [2], this compound returned an IC50 of 10000 to 100000 nM.

With `O=C(NO)c1cnc2c(c1)CCN(C1CC3(CCOCC3)C1)C2` [Compound 179, N-hydroxy-7-(7-oxaspiro[3.5]nonan-2-yl)-5,6,7,8-tetrahydro-1,7-naphthyridine-3-carboxamide], in test [1], the IC50 is 100 to 1000 nM and the “Selectivity (6 v 8) (fold)” value was “III (III: >10-100)”. The compound further had a half-maximal inhibitory concentration (IC50) in test [2] of 1000 to 10000 nM.

Turning to `O=C(NO)c1cnc2c(c1)CCN(C1CC3(CCCC3)C1)C2` [Compound 183, N-hydroxy-7-(spiro[3.4]octan-2-yl)-5,6,7,8-tetrahydro-1,7-naphthyridine-3-carboxamide], in test [1], the IC50 was 1 to 100 nM and the “Selectivity (6 v 8) (fold)” value was “IV (IV: >100-1000)”. This compound also yielded a half-inhibitory concentration (IC50) in test [2] of 1000 to 10000 nM.

In the case of `O=C(NO)c1cnc2c(c1)CCN([C@H]1C[C@@]3(CCOC3)C1)C2` [Compound 188, N-hydroxy-7-((2r,4r)-6-oxaspiro[3.4]octan-2-yl)-5,6,7,8-tetrahydro-1,7-naphthyridine-3-carboxamide], in test [1], the IC50 fell in the range of 100 to 1000 nM and the “Selectivity (6 v 8) (fold)” value is listed as “IV (IV: >100-1000)”. Further, the IC50 in test [2] lay in the range of 10000 to 100000 nM.

Consider `O=C(NO)c1cnc2c(c1)CCN([C@H]1C[C@]3(CCOC3)C1)C2` [Compound 189, N-hydroxy-7-((2s,4s)-6-oxaspiro[3.4]octan-2-yl)-5,6,7,8-tetrahydro-1,7-naphthyridine-3-carboxamide], for which, in test [1], the IC50 lay in the range of 100 to 1000 nM and the “Selectivity (6 v 8) (fold)” value was “IV (IV: >100-1000)”. In test [2], this compound came in with an IC50 of 10000 to 100000 nM.

Consider `O=C(NO)c1cnc2c(c1)CCN(C1CCC3(CCC3)CC1)C2` [Compound 192, N-hydroxy-7-(spiro[3.5]nonan-7-yl)-5,6,7,8-tetrahydro-1,7-naphthyridine-3-carboxamide], for which, in test [1], the IC50 fell in the range of 1 to 100 nM and the “Selectivity (6 v 8) (fold)” value is given as “IV (IV: >100-1000)”. In test [2], the IC50 lay in the range of 1000 to 10000 nM.

With `O=C(NO)c1cnc2c(c1)CCN(C1CC3(CCNCC3)C1)C2` [Compound 197, N-hydroxy-7-(7-azaspiro[3.5]nonan-2-yl)-5,6,7,8-tetrahydro-1,7-naphthyridine-3-carboxamide], in test [1], the IC50 fell in the range of 100 to 1000 nM and the “Selectivity (6 v 8) (fold)” value is on record as “III (III: >10-100)”. In test [2], this compound came in with an IC50 of 10000 to 100000 nM.

Consider `CN1CCC2(CC1)CC(N1CCc3cc(C(=O)NO)cnc3C1)C2` [Compound 198, N-hydroxy-7-(7-methyl-7-azaspiro[3.5]nonan-2-yl)-5,6,7,8-tetrahydro-1,7-naphthyridine-3-carboxamide], for which, in test [1], the IC50 is 100 to 1000 nM and the “Selectivity (6 v 8) (fold)” value is given as “III (III: >10-100)”. The same compound yielded a half-inhibitory concentration (IC50) in test [2] of 1000 to 10000 nM.

As for `CC(=O)N1CCC2(CC1)CC(N1CCc3cc(C(=O)NO)cnc3C1)C2` [Compound 199, 7-(7-acetyl-7-azaspiro[3.5]nonan-2-yl)-N-hydroxy-5,6,7,8-tetrahydro-1,7-naphthyridine-3-carboxamide], in test [1], the IC50 was 100 to 1000 nM and the “Selectivity (6 v 8) (fold)” value is on record as “III (III: >10-100)”. This compound yielded an IC50 in test [2] of 10000 to 100000 nM.

For `O=C(NO)c1cnc2c(c1)CCN(C1CC3(CNC3)C1)C2` [Compound 289], in test [1], the half-inhibitory concentration (IC50) was 100 to 1000 nM and the “Selectivity (6 v 8) (fold)” value was “III (III: >10-100)”. The same compound returned a half-inhibitory concentration (IC50) in test [2] of 10000 to 100000 nM.

`CN1CCC2(CCC(N3CCc4cc(C(=O)NO)cnc4C3)C2)CC1` (centres unmarked) [Compound 417]: in test [1], the IC50 fell in the range of 100 to 1000 nM and the “Selectivity (6 v 8) (fold)” value is “III (III: >10-100)”. In addition, the 50% inhibitory concentration (IC50) in test [2] lay in the range of 1000 to 10000 nM.

As for `O=C(NO)c1cc2c(cn1)CN(C1CC3(CCCCC3)C1)CC2` [DDD], in test [1], the IC50 was in the range of 1000 to 10000 nM and the “Selectivity (6 v 8) (fold)” value is given as “III (III: >10-100)”. In addition, the IC50 in test [2] was in the range of 10000 to 100000 nM.

For the compound `O=C(NO)c1ccc2c(n1)CCN(C1CC3(CCCCC3)C1)C2` [EEE], in test [1], the IC50 lay in the range of 100 to 1000 nM and the “Selectivity (6 v 8) (fold)” value is reported as “V (V: >1000)”. In test [2], this compound came in with a half-inhibitory concentration (IC50) of over 100000 nM.

As for `O=C(NO)c1ncc2c(n1)CCN(C1CC3(CCCCC3)C1)C2` [FFF, N-hydroxy-6-(spiro[3.5]nonan-2-yl)-5,6,7,8-tetrahydropyrido[4,3-d]pyrimidine-2-carboxamide], in test [1], the IC50 was over 100000 nM and the “Selectivity (6 v 8) (fold)” value is recorded as “II (II: >1-10)”. In addition, in test [2], the IC50 was over 100000 nM.
